Data on four substances can be found in patent publication US20040044067A1, “Toralactone and its derivation and the use of decreasing blood-fat and losing weight” (priority 2000, published 2004).

This assay relates to hyperlipemia guinea pigs. The assay can be described thus: Effect on serum cholesterol and triglyceride in hyperlipemia guinea pigs (high-cholesterol feed, 30 days). Type of assay: in vivo, guinea pig. The settings on record: for Serum TC (total cholesterol) / Serum TG (triglyceride): guinea pigs on high-cholesterol feed (basic feed+0.5% cholesterol) plus 10 mg/(kg·d) compound for 30 days, serum taken 24 h after last feeding, n=10. As for the experimental part:
The test was performed as described in Fuhua, Wang, Chinese Journal of Surgery, 1991; 8 (1): 17. 60 healthy guinea pigs of 200-500 g were randomly divided into 6 groups based on body weight and sex. Each group contained 10 animals, including both male and female. The guinea pigs of Group 1 were fed with high-cholesterol feed (basic feed+0.5% cholesterol) at an amount of 20 g per 100 g body weight per day. Groups 2, 3, 4, 5 were test groups, the guinea pigs of which were fed with high-cholesterol feed plus 10 mg/(kg·d) of Compound (1), (2), (3) or (4) for 30 days. The guinea pigs of Group 6 were fed with basic feed only. The feeding for each group continued for 30 days, and 24 hours after the last feeding, the guinea pigs were anaesthetized i.p. with 1 g/kg Urethane. Blood was taken from heart, and serum was separated. The level of serum total cholesterol (TC) and triglyceride (TG) were determined.
In the above procedure, cholesterol was determinated by enzymatic analysis, using enzymatic agent assay kit from BGH Company (Taiwan). All the operations were carried out according to the manufacturer's instruction, and the determination was accomplished in ENCOREII automatic biochemistry analyser.

In the case of neotoralactone [Compound (1)], the “Serum TC (total cholesterol)” value came out at 4.21 ± 1.9 mmol/L and the “Serum TG (triglyceride)” value is given as 1.21 ± 0.3 mmol/L. As for “neotoralactone-6-O-β-D-galactoside [Compound (4)]”, the “Serum TC (total cholesterol)” value is 3.71 ± 1.1 mmol/L and the “Serum TG (triglyceride)” value worked out at 1.22 ± 0.2 mmol/L. For “neotoralactone-6-O-β-D-glucoside [Compound (2)]”, the “Effect on the level of serum TC and TG (in words)” value (10 mg/(kg·d)×30d, hyperlipemia guinea pigs) is on record as “most prominent”. As for “neotoralactone-8-O-β-D-glucoside [Compound (3)]”, the “Serum TC (total cholesterol)” value is on record as 3.81 ± 0.9 mmol/L and the “Serum TG (triglyceride)” value is given as 1.18 ± 0.2 mmol/L.
